According to patent publication US20210196793A1, “Pharmaceutical Combination Comprising Epidermal Growth Factor and Secretagogue Peptide GHRP6 for the Restoration of Brain Damage” (CENTRO DE INGENIERÍA GENÉTICA Y BIOTECNOLOGÍA, priority 2018, published 2021):

System: patients with Amyotrophic Lateral Sclerosis
Assay: Patients with Amyotrophic Lateral Sclerosis, ALSFRS-R functional scale
Format: in vivo, human
Conditions: for ALSFRS-R before treatment: baseline
Method: Forty patients with definite diagnosis of Amyotrophic Lateral Sclerosis were treated with EGF 0.6 μg/kg of body weight, and GHRP6 60 μg/kg of body weight, intravenously, every other day, during 6 months, together with Rilutek® (Riluzole). Previously, these patients were stratified according to the origin of the disease, spinal (n=25) or bulbar (n=15). Another group of 30 patients with definite diagnosis of Amyotrophic Lateral Sclerosis, also stratified according to origin, spinal (n=21) or bulbar (n=9), were treated only with Rilutek®.
Before the beginning and after the end of the trial, all patients were evaluated using the functional scale for Amyotrophic Lateral Sclerosis (ALSFRS-R). The ALSFRS-R scale is usually used for the neurological and functional evaluation of patients with said disease. This scale includes various functional items, such as those related to language, salivation, swallowing, the ability to write, handling eating utensils, dressing and sanitizing, turning in bed, climbing stairs, and breathing.

SMILES: Nc1nc2ccc(OC(F)(F)F)cc2s1 [Rilutek ®, Riluzole]
- clinical improvement (salivation, swallowing, breathing, dysarthria) (after 6 months of treatment, spinal and bulbar onset): None of the latter was observed
- ALSFRS-R after the treatment (bulbar origin, after 6 months of treatment): 33.1 ± 8.32
- ALSFRS-R before treatment (bulbar origin): 35.1 ± 6.2
- ALSFRS-R after the treatment (spinal origin, after 6 months of treatment): 38.2 ± 3.34
- ALSFRS-R before treatment (spinal origin): 38.7 ± 4.4
